Test results as given in patent publication US9981960B2, “Pyrrolidine compound and application as melanocortin receptor agonist” (MITSUBISHI TANABE PHARMA CORPORATION, priority 2014, dated 2018).

Target: T1, Human MC1R (Homo sapiens, UniProt Q01726)
T1 construct: endogenous in cells; host or cells: human melanoma cell line HBL
Test: MCR agonist measurement (cAMP measurement), human MC1R agonist activity in human melanoma cell line HBL
Assay type: cell-based
Settings: HBL cells; for EC50: 37° C. for 30 minutes, intracellular cAMP by fluorescence method; for Human MC1R IA %: Intrinsic Activity, vehicle cAMP = 0%, αMSH at 10^-6 M = 100%
Description: (1) Method for Culturing Cells
Human MC1R agonist activity measurement was carried out by using human melanoma cell line HBL. Culture of HBL: F-10 Nutrient Mixture containing 10% FCS and Penicillin-streptomycin was used in the culture.
(2) cAMP Assay and Data Calculation
Each compound solution having each concentration was mixed with cAMP assay buffer (HBSS (Hank's Balanced Salt Solution) containing 10 mM HEPES and 0.1% BSA), and dispensed into 96 well plate. HBL was suspended in cAMP assay buffer containing 0.5 mM IBMX so that the concentrate became 5×10^4/mL, dispensed into the above 96 well plate, then mixed, left to stand at 37° C. for 30 minutes, and then the intracellular […] concentration was measured by fluorescence method using Envision (ex. 320 nm, em. 590 nm and 665 nm).

T1 sequence (Q01726 whole entry): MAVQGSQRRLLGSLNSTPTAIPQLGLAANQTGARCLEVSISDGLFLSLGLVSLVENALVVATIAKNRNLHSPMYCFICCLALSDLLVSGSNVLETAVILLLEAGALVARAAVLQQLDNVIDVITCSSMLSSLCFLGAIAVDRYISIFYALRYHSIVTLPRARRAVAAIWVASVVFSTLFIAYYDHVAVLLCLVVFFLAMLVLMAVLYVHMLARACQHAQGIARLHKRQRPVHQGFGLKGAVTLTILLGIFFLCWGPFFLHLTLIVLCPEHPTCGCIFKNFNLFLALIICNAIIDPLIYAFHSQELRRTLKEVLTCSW

SMILES | EC50 | Human MC1R IA %
COc1ccc([C@@H]2CN(C3CCCC3)C[C@@]2(F)C(=O)N2C[C@H](c3ccc(C(F)(F)F)cc3N3CCC(C(=O)O)CC3)C[C@H]2CF)cc1 [Example 299] | 0.7 nM | 83%
COC[C@H]1CN(C(=O)[C@]2(F)CN(C3CCOCC3)C[C@H]2c2ccc(OC)cc2)C[C@@H]1c1ccc(C(F)(F)F)cc1N1CCC(C#N)CC1.Cl.Cl [Example 278, 1-{2-[(3S,4R)-1-{[(3R,4R)-3-fluoro-4-(4-methoxyphenyl)-1-(tetrahydro-2H-pyran-4-yl)pyrrolidin-3-yl]carbonyl}-4-(methoxymethyl)pyrrolidin-3-yl]-5-(trifluoromethyl)phenyl}piperidine-4-carbonitrile dihydrochloride] | 39 nM | 46%
COc1ccc([C@@H]2CN(C3CCCC3)C[C@@]2(F)C(=O)N2C[C@H](c3ccc(C(F)(F)F)cc3N3CCC(C(=O)O)CC3)[C@@H](C(C)(C)O)C2)cc1.Cl.Cl [Example 228, 1-{2-[(3S,4R)-1-{[(3R,4R)-1-cyclopentyl-3-fluoro-4-(4-methoxyphenyl)pyrrolidin-3-yl]carbonyl}-4-(2-hydroxypropan-2-yl)pyrrolidin-3-yl]-5-(trifluoromethyl)phenyl}piperidine-4-carboxylic acid dihydrochloride] | 11 nM | 77%
COC[C@H]1CN(C(=O)[C@]2(F)CN(C3CCCC3)C[C@H]2c2ccc(OC)cc2)C[C@@H]1c1ccc(C(F)(F)F)cc1N1CCC(C(=O)N2CCC[C@@H]2C(=O)O)CC1 [Example 270] | 5.6 nM | 82%
COc1ccc([C@@H]2CN(C(C)(C)C)C[C@@]2(F)C(=O)N2CCC(c3ccc(C(F)(F)F)cc3N3CCC(C(=O)N4CCCC4)CC3)CC2)cc1 [Example 235] | 79 nM | 124%
COC[C@H]1CN(C(=O)[C@]2(F)CN([C@H]3CC[C@H](OC)CC3)C[C@H]2c2ccc(OC)cc2)C[C@@H]1c1ccc(C(F)(F)F)cc1N1CCC(C(=O)O)CC1 [Example 99] | 4.7 nM | 117%
COc1ccc([C@@H]2CN(C(C)(C)C)C[C@@]2(F)C(=O)N2CCC(c3ccc(C(F)(F)F)cc3-c3nc(C(=O)O)co3)CC2)cc1 [Example 79] | 67 nM | 103%
COC[C@@]1(OC)CN(C(=O)[C@]2(F)CN([C@H]3CC[C@H](OC)CC3)C[C@H]2c2ccc(OC)cc2)C[C@@H]1c1ccc(C(F)(F)F)cc1N1CCC(C(=O)O)CC1 [Example 156] | 29 nM | 83%
COC[C@@H]1C[C@@H](c2ccc(C(F)(F)F)cc2N(C)CCCC(=O)O)CN1C(=O)[C@]1(F)CN([C@H]2CC[C@H](OC)CC2)C[C@H]1c1ccc(OC)cc1 [Example 115] | 11 nM | 85%
COC[C@H]1CN(C(=O)[C@]2(F)CN(C3CCCC3)C[C@H]2c2ccc(OC)cc2)C[C@@H]1c1ccc(C(F)(F)F)cc1N1CCC(C(=O)O)CC1 [Example 19] | – | 88%
COC[C@@H]1C[C@@H](c2ccc(C(F)(F)F)cc2N2CCC(C(=O)O)CC2)CN1C(=O)[C@]1(F)CN(c2ccnc(C)c2)C[C@H]1c1ccc(OC)cc1 [Example 68] | 0.94 nM | 111%
COc1ccc([C@@H]2CN(C(C)(C)C)C[C@@]2(F)C(=O)N2CCC(c3ccc(C(F)(F)F)cc3[C@H]3C[C@H](C(=O)O)C3)CC2)cc1 [Example 177] | 7.4 nM | 80%
CCC(=O)N1CCC(N2C[C@@H](c3ccc(OC)cc3)[C@](F)(C(=O)N3C[C@H](COC)[C@@H](c4ccc(C(F)(F)F)cc4N4CCC(C(=O)O)CC4)C3)C2)CC1 [Example 327] | 23 nM | 67%
CCc1ccc([C@@H]2CN(C(C)(C)C)C[C@@]2(F)C(=O)N2CCC(c3ccc(C(F)(F)F)cc3N3CCC(C(=O)O)CC3)CC2)cc1 [Example 91] | 44 nM | 74%
COc1ccc([C@@H]2CN(C(C)(C)C)C[C@@]2(F)C(=O)N2CCC(c3ccc(C(F)(F)F)cc3N3CCC(C(=O)NS(C)(=O)=O)CC3)CC2)cc1 [Example 274] | 7.5 nM | 89%
COC[C@H]1CN(C(=O)[C@]2(F)CN(C3CCCC3)C[C@H]2c2ccc(OC)cc2)C[C@@H]1c1ccc(C(F)(F)F)cc1N1CCC(C(=O)N(C)C)CC1 [Example 248] | 5.1 nM | 92%
COC[C@@H]1C[C@@H](c2ccc(C(F)(F)F)cc2N2CCC(C(=O)O)CC2)CN1C(=O)[C@]1(F)CN(C2CCC2)C[C@H]1c1ccc(OC)cc1 [Example 139] | 0.8 nM | 80%
COc1ccc([C@@H]2CN(C3CCOC3)C[C@@]2(F)C(=O)N2CCC(c3ccc(C(F)(F)F)cc3N3CCC(C(=O)O)CC3)CC2)cc1 (stereo partly drawn) [Example 289] | 124 nM | 55%
COc1ccc([C@@H]2CN(C3CCCC3)C[C@@]2(F)C(=O)N2C[C@H](c3ccc(C(F)(F)F)cc3N3CCC(C(=O)O)CC3)C[C@H]2CC#N)cc1 [Example 300] | – | 93%
COc1ccc([C@@H]2CN([C@H]3CC[C@H](OC)CC3)C[C@@]2(F)C(=O)N2CC[C@@H](c3ccc(F)cc3N3CCC(C(=O)O)CC3)C2)cc1 [Example 218] | 4.3 nM | 110%
COc1ccc([C@@H]2CN(C3CCCC3)C[C@@]2(F)C(=O)N2CC(c3ccc(C(F)(F)F)cc3N3CCC(C(=O)O)CC3)C(F)(F)C2)cc1 (single isomer, unassigned) [Example 294] | 804 nM | 81%
COc1ccc([C@@H]2CN(C(C)(C)C)C[C@@]2(F)C(=O)N2CCC(c3ccc(C(F)(F)F)cc3N3CCC(N(C)C)CC3)CC2)cc1 [Example 205] | 38 nM | 67%
COc1ccc([C@@H]2CN(C3CCCC3)C[C@@]2(F)C(=O)N2CC(c3ccc(C(F)(F)F)cc3N3CCC(C(=O)O)CC3)C(F)(F)C2)cc1 (single isomer, unassigned) [Example 293] | 20 nM | 99%
COC[C@H]1CN(C(=O)[C@]2(F)CN(C3CCOCC3)C[C@H]2c2ccc(OC)cc2)C[C@@H]1c1ccc(C(F)(F)F)cc1N1CCC(C(=O)O)CC1 [Example 95] | 12 nM | 72%
COC[C@H]1CN(C(=O)[C@]2(F)CN(C3CCCCC3)C[C@H]2c2ccc(OC)cc2)C[C@@H]1c1ccc(C(F)(F)F)cc1N1CCC(C(=O)O)CC1 [Example 27] | 6.5 nM | 78%
COc1ccc([C@@H]2CN(C(C)(C)C)C[C@@]2(F)C(=O)N2CCC(c3ccc(C(F)(F)F)cc3[C@H]3CC[C@H](C(=O)O)CC3)CC2)cc1 [Example 85] | 60 nM | 75%
COc1ccc([C@@H]2CN(C3CCOCC3)C[C@@]2(F)C(=O)N2CC[C@@H](c3ccc(C(F)(F)F)cc3N3CCC(C(=O)O)CC3)C2)cc1 [Example 215] | 14 nM | 59%
COc1ccc([C@@H]2CN(C(C)(C)C)C[C@@]2(F)C(=O)N2CCC(c3ccc(C(F)(F)F)cc3N3CCN(C(C)=O)CC3)CC2)cc1.Cl.Cl [Example 282, 1-{4-[2-(1-{[(3R,4R)-1-tert-butyl-3-fluoro-4-(4-methoxyphenyl)pyrrolidin-3-yl]carbonyl}piperidin-4-yl)-5-(trifluoromethyl)phenyl]piperazin-1-yl}ethanone dihydrochloride] | 27 nM | 79%
